{"source": "patent US5705687A", "about": "“Neurotropic drug and method for preparation of same” (priority 1993, dated 1998)", "key": {"mice [1]": {"test_system": "mice", "assay": "Soporific action of barbital sodium"}, "[2]": {"assay": "Solubility and hygroscopicity", "assay_type": "physicochemical"}, "central nervous system": {"test_system": "central nervous system", "assay": "Neuropharmacological screening, overall findings", "assay_type": "in vivo, mice", "conditions": "examined dosage range", "experimental": "(§1) The myorelaxing effect of the new compounds was tested by the method of the \"rotating rod\"(Dunham N. W., Miga T. S., A note on a simplex apparatus for detecting neurological deficit in rat and mice, J. Am. Pharm. Ass., 1957, vol. 46, No. 3, pp. 208-209), which allows one to record any abnormalities in coordination and balance, as well as ataxia. The mice in the laboratory tests were placed on a horizontal rod, 2 cm in diameter, rotating at a speed of 5 revolutions per minute. The object was to register the number of mice which were able to maintain equilibrium on the rod for two minutes. Any presence of a myorelaxing component was considered to be a side effect of the substance being studied."}, "mice [3]": {"test_system": "mice", "assay": "Hemic hypoxia (sodium nitrite), lifespan", "assay_type": "in vivo", "conditions": "400 mg/kg i.p., control", "experimental": "(§2) The antihypoxic properties of the new compounds were tested in the models of hypoxic normobaric, hemic and histotoxic hypoxia. The hypoxic (hypercapnic) normobaric hypoxia was induced by placing the mice in hermetically sealed transparent boxes, subdivided into compartments, 80 cm^3 each. The animals were observed until all respiratory movements ceased. The hemic hypoxia was induced by the intraperitoneal administration of sodium nitrite in a dose of 400 mg/kg. The hystotoxic hypoxia was induced by the intraperitoneal administration of sodium nitroprussiate, in a dose of a 20 mg/kg dosage."}, "mice [4]": {"test_system": "mice", "assay": "Soporific action of hexobarbital"}, "mice [5]": {"test_system": "mice", "assay": "Orientation reflexes: test of ascent onto an inclined net"}, "[6]": {"conditions": "background statement on the known drug; cited from earlier work"}, "mice [7]": {"test_system": "mice", "assay": "Conditioned reaction of passive avoidance (CPRA), amnesia by electric shock", "assay_type": "in vivo", "conditions": "250 to 500 mg/kg; earlier tests", "from_the_text": "The effect produced by the new substance on the processes of the central nervous system was examined on the model of one-time training of mice, of conditioned reaction of passive avoidance (CPRA), where the amnesic effect was produced by electric shock. During the tests, a two-section chamber was used to condition a certain reflex to the lit and darkened sections. First, for two minutes, the amount of time was registered, that a mouse spent in the lit section before entering the darkened section. Then, while in the darkened section, the animal would receive a single electric shock through the electrode floor (training). The training was immediately followed by an electric shock (50 Hz, 0.2 see). […] The substance was intraperitoneally administered 40 min. prior to the start of the training, the control group received a physiological solution. […] The anti-amnesic properties of the new compound are represented by an increase in the latent period before and after the training. (Δt)"}, "mice [8]": {"test_system": "mice", "assay": "Histotoxic hypoxia (sodium nitroprussiate), lifespan", "assay_type": "in vivo", "conditions": "250, 500 and 1000 mg/kg (two values for three doses (so in the source))", "experimental": "as §2"}, "mice [9]": {"test_system": "mice", "assay": "Spontaneous motor activity (SMA), 40-channel automatic motor meter", "conditions": "for Average SMA, M ± m: control 524.0 ± 99.2; for Relative change in activity (%): control = 100"}, "[10]": {"conditions": "cited from earlier work"}, "mice [11]": {"test_system": "mice", "assay": "Rotating rod: myorelaxation and movement coordination", "assay_type": "in vivo, white crossbred mice", "experimental": "as §1"}, "[12]": {"assay": "Acute toxicity in mice (Litchfield-Wilcockson)", "assay_type": "in vivo, white crossbred mice", "conditions": "mouse, in vivo"}}, "note": "“And” between values parts separate entries of the source, which are not always exact repeats. Equal entries are not always repeated. Structures can show the parent of a compound that is named as a salt. Where two headings read alike, the source gives them in different places."}
{"smiles": "CCC1(CC)C(=O)NC(=O)NC1=O", "note": "[Barbitol sodium, barbital sodium, reference compound]", "values": [{"measurement": "Lateral position (min), barbiturate alone", "setting": "mice [1]; 250 mg/kg i.p., control of each experiment", "result": "31.8 ± 1.1 min and 34.5 ± 1.4 min and 38.1 ± 1.3 min"}]}
{"smiles": "CC(C)(CO)C(=O)C(=O)NCCCC(=O)O", "note": "[KPA, N-(4-hydroxy-3,3-dimethyl-2-oxo-1-butyryl)γ-aminobutyric acid]", "values": [{"measurement": "solubility in acetone or chloroform", "setting": "[2]; acetone, chloroform", "result": "not in acetone or chloroform"}, {"measurement": "solubility in water and alcohol", "setting": "[2]; water, alcohol", "result": "readily soluble"}, {"measurement": "depressing effect on the animals", "setting": "central nervous system", "result": "no depressing effect"}]}
{"smiles": "O=N[O-].[Na+]", "note": "[Na-nitrite, sodium nitrite, reference compound]", "values": [{"measurement": "Average lifespan (sec), hypoxia inducer alone", "setting": "mice [3]", "result": "790.5 ± 21.1", "unit": "s"}]}
{"smiles": "CN1C(=O)NC(=O)C(C)(C2=CCCCC2)C1=O", "note": "(stereo not shown) [hexobarbital, reference compound]", "values": [{"measurement": "Duration of sleep (min), barbiturate alone", "setting": "mice [4]; 100 mg/kg i.p., control", "result": "46.3 ± 2.3", "unit": "min"}, {"measurement": "Lateral position (min), barbiturate alone", "setting": "mice [4]; 100 mg/kg i.p., control", "result": "2.4 ± 0.15", "unit": "min"}]}
{"smiles": "CC(C)(CO)[C@@H](O)C(=O)NCCCC(=O)O", "note": "[pantogam, calcium salt of the D-homopantothenic acid, reference compound]", "values": [{"measurement": "increase of soporific effect", "setting": "mice [1]; 500 mg/kg, barbital sodium, indicated earlier", "result": 20, "unit": "%"}, {"measurement": "ED50", "setting": "mice [5]; Mus musculus, ip, read-out: average effective dose (DE50)", "result": 680, "unit": "mg/kg"}, {"measurement": "time of maximum strength", "setting": "mice [5]; after administration, orientation reflex", "result": 60, "unit": "min"}, {"measurement": "effect on orientation reflex", "setting": "mice [5]; mice", "result": "suppressed the orientation reflex"}, {"measurement": "increase of soporific effect", "setting": "mice [4]; 500 mg/kg, hexobarbital, indicated earlier", "result": 40, "unit": "%"}, {"measurement": "therapeutic index", "setting": "[6]", "result": 3.3}, {"measurement": "anti-amnesic effect (in words)", "setting": "mice [7]", "result": "moderate a anti-amnesic effect"}, {"measurement": "anti-amnesic effect, share of latent period in animals not exposed to the electric shock", "setting": "mice [7]", "result": "60-75%"}, {"measurement": "increase in lifespan", "setting": "mice [8]", "result": "57% and 85%"}, {"measurement": "decrease in number of runs in the motor meter", "setting": "mice [9]; 500 mg/kg", "result": 30, "unit": "%"}, {"measurement": "Average SMA, M ± m", "setting": "mice [9]; 500 mg/kg i.p.", "result": "392.0 ± 307"}, {"measurement": "Relative change in activity (%)", "setting": "mice [9]; 500 mg/kg i.p.", "result": 74.8, "unit": "%"}, {"measurement": "Average SMA, M ± m", "setting": "mice [9]; 1000 mg/kg i.p., P < 0.05", "result": "176.0 ± 116"}, {"measurement": "Relative change in activity (%)", "setting": "mice [9]; 1000 mg/kg i.p.", "result": 33.6, "unit": "%"}, {"measurement": "decrease in motor activity", "setting": "mice [9]; 1000 mg/kg, the maximum tolerable dose", "result": 70, "unit": "%"}, {"measurement": "effect on motor activity (in words)", "setting": "mice [9]; SMA test, mice", "result": "depressing effect on motor activity"}, {"measurement": "undesirable side effects", "setting": "[10]; known drug, high dose", "result": "depression and myorelaxation"}, {"measurement": "penetration of the hematoencephalitic barrier compared to aminalon", "setting": "[10]; vs aminalon", "result": "better penetration"}, {"measurement": "loss of movement coordination (side effect)", "setting": "mice [11]; 300 mg/kg and higher", "result": "loss of movement coordination"}, {"measurement": "time of maximum strength", "setting": "mice [11]; after injection, rotating rod", "result": 30, "unit": "min"}, {"measurement": "return of movement coordination and muscle strength (not until)", "setting": "mice [11]; after the start of the experiment", "result": 1.5, "unit": "h"}, {"measurement": "LD50", "setting": "[12]; intravenous, read-out: DL50 (the source's name)", "result": 1080, "unit": "mg/kg"}, {"measurement": "LD50", "setting": "[12]; ip, earlier experiments, identical conditions, read-out: DL50 (acute toxicity)", "result": 2250, "unit": "mg/kg"}, {"measurement": "MTD", "setting": "[12]; ip, read-out: maximum tolerance level", "result": 1000, "unit": "mg/kg"}]}
